# Assay results from PMC6703856 (Biochemistry, 2019).
# Like-named read-outs stand apart in the source and are kept apart here.
# What was measured:
# MBP I329W mutant = MBP I329W mutant (Escherichia coli, UniProt P0AEX9, I355W); experiment: Maltose fluorescence titration, peak wavelength of tryptophan fluorescence; assay type: binding; settings: I329W mutant relative to wild-type protein
# [1] = system: NBD-labelled MBP (cysteine mutation at Ser337); assay type: binding, Escherichia coli
Compound,increase in maltose binding affinity (MBP I329W mutant),weakening of maltose affinity by the NBD dye ([1]; monitored by NBD fluorescence intensity),weakening of maltose affinity by the NBD dye ([1]; monitored by peak wavelength of tryptophan fluorescence),"increase in maltose Kd;app ([1]; 100 g/L BSA, NBD fluorescence)"
OC[C@H]1O[C@H](O[C@H]2[C@H](O)[C@@H](O)C(O)O[C@@H]2CO)[C@H](O)[C@@H](O)[C@@H]1O (mixture of isomers) [maltose],100 fold,24 fold,5 fold,–
bovine serum albumin [BSA],–,–,–,16 fold
